Values quoted from earlier work in article PMC2918392 (Journal of medicinal chemistry, 2010).

Key:
µ-opioid receptor [1] = tested on: µ-opioid receptor
[2] = tested on: µ opioid receptors (guinea pig ileum); details: read-out: Functional Bioactivity GPI (IC50), ± S.E.M.
µ-opioid receptor [3] = details: see also ref 1

For Tyr-Pro-Phe-(2S,3S)-β-MePhe-NH2, the “activity among EM analogues containing β-MePhe stereoisomers, in words” value (µ-opioid receptor [1]) is given as “highest activity”.

For Tyr-Pro-Phe-Phe-NH2 [EM-2], the IC50 [2] is given as 15 ± 2 nM, the “µ-opioid receptor selectivity, in words” value (µ-opioid receptor [3]) is given as “c Data from reference 16. Binding affinity based on competition against [^3H]naloxone in rat brain membranes. Data were not presented on the affinity of EM2 at the δ-opioid receptor in that preparation, as EM was shown to be highly selective for µ-opioid receptors (see also reference 1)” and the “affinity and selectivity of activation of µ-opioid receptors, in words” value (µ-opioid receptor [1]) is given as “high affinity and selectivity”.

For Tyr-Pro-Phe-Phe-OH, the “µ-opioid receptor agonist activity, in words” value (µ-opioid receptor [1]; C-terminal free acid) is given as “completely devoid of µ-opioid receptor agonist activity”.

For Tyr-Pro-Trp-Phe-NH2 [EM-1], the “affinity and selectivity of activation of µ-opioid receptors, in words” value (µ-opioid receptor [1]) is given as “high affinity and selectivity”.
